Measured values published in US20030215462A1, “Use of UGT inhibitors to increase bioavailability” (priority 2001, published 2003).
Where “and” joins values, the source holds several entries; their conditions need not be identical. Identical values can stand only once.

Experiments:
[1] = biological target: T1, UGT1A8 (Homo sapiens, UniProt Q9HAW9); test: Inhibition of raloxifene glucuronidation by recombinant UGT1A8 Supersomes; details: for activity at 15 min, 10 µM / activity at 15 min, 50 µM: human, Supersomes with recombinant human UGT1A8, pH 7.5, probe raloxifene 50 μM; for activity at 15 min, 10 µM: inhibitor 10 μM; for activity at 15 min, 50 µM: inhibitor 50 μM
T1 sequence (Q9HAW9 26-530): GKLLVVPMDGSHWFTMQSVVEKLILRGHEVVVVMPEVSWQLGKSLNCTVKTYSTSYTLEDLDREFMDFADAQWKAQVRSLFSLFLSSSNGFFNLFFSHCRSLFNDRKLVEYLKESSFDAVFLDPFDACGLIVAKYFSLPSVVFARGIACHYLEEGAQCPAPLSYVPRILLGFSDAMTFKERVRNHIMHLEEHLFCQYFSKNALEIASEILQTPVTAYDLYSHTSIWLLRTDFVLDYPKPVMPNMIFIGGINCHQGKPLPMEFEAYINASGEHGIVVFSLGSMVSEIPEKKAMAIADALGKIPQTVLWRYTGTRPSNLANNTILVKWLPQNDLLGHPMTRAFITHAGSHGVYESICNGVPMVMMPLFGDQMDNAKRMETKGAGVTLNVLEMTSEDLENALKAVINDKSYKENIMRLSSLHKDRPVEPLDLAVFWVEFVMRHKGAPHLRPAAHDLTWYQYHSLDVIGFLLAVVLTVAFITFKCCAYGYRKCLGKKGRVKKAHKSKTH
Method: (§2) Compounds were eluted using a binary solvent gradient system. Solvent A was water brought to pH 8 with NH4OH. Solvent B was methanol. Solvent flow rate was 1 ml/min and the column temperature was maintained at 50° C. Detection was at 280 nm. […] The system was then returned to the initial conditions and equilibrated for 3 min.

[2] = tested on: UGT enzymes of pooled human jejunum microsomes; test: Inhibition of raloxifene glucuronidation (G1, G2) in pooled human jejunum microsomes; assay type: biochemical; details: jejunum HJ61
Method: Compounds were eluted using a binary solvent gradient system. […] Solvent B was methanol. […] Detection was at 280 nm.
Standardized incubations utilized […] microsomal protein, 1 mM UDPGA and a 30 min incubation time.

[3] = biological target: T2, UGT enzymes of human liver microsomes (Homo sapiens, UniProt P16662); test: Inhibition of zidovudine glucuronidation in human liver microsomes; assay type: biochemical; details: liver lot 062101
T2 construct: residual metabolism (percentage of control), zidovudine glucuronidation; other: liver lot 062101; residual metabolism (percentage of control), zidovudine glucuronidation; residual metabolism (percentage of control)
T2 sequence (P16662 1-529): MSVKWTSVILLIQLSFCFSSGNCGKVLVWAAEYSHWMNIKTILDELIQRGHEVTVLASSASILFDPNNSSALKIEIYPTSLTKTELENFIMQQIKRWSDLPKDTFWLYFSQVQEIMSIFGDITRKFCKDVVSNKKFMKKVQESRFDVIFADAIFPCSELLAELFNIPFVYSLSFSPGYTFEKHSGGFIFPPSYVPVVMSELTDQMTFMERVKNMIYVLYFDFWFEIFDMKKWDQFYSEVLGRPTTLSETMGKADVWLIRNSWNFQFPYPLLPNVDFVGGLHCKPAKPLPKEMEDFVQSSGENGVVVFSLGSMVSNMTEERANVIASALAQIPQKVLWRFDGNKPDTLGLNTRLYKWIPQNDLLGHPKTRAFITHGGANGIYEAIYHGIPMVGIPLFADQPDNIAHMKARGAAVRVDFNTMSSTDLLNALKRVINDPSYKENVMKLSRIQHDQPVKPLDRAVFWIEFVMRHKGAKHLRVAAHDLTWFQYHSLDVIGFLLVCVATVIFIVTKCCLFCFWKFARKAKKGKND
Method: Compounds were eluted using a binary solvent gradient system where solvent A was dilute phosphoric acid (pH 3) and solvent B was acetonitrile.
Standardized incubations utilized 500 μM zidovudine substrate, 1 mg/ml microsomal protein, 5 mM UDPGA and a 30 min incubation time. […] Int.

[4] = tested on: T3, UGT enzymes of human liver microsomes; test: Inhibition of estradiol (E2) glucuronidation in human liver microsomes; assay type: biochemical; details: liver 032101, E2 50 μM
T3 construct: residual metabolism (% of control), E2-17-β-D-glucuronide; other: liver 032101; residual metabolism (% of control), E2-17-β-D-glucuronide
Description: (§1) Compounds were eluted using a binary solvent gradient system where solvent A was dilute phosphoric acid (pH 3) and solvent B was 80:20 acetonitrile-methanol. […] Detection was at 280 nm.

[5] = biological target: T4, UGT1A10 (Homo sapiens, UniProt Q9HAW8); test: Inhibition of raloxifene glucuronidation by recombinant UGT1A10 Bacculosomes; details: for inhibition of raloxifene glucuronidation, in words: UGT1A10; for activity at 15 min, 25 µM / activity at 15 min, 50 µM: human, Bacculosomes with recombinant human UGT1A10, pH 7.5, probe raloxifene 50 μM; for activity at 15 min, 25 µM: inhibitor 25 μM; for activity at 15 min, 50 µM: inhibitor 50 μM
T4 sequence (Q9HAW8 26-530): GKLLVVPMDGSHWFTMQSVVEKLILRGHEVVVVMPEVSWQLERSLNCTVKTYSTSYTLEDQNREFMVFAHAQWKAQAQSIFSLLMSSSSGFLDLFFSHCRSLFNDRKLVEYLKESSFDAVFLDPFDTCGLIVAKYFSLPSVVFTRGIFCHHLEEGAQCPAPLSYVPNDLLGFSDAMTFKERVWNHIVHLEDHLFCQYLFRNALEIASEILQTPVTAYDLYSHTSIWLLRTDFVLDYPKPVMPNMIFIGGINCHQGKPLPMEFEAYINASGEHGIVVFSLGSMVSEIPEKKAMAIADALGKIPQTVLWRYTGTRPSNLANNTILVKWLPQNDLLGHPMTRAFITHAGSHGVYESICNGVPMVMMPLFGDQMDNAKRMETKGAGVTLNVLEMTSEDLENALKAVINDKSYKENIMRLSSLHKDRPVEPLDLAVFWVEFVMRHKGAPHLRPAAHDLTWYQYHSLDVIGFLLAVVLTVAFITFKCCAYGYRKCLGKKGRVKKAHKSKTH
Method: as §2

[6] = tested on: T5, UGT enzymes of human liver microsomes; test: Inhibition of 2ME2 glucuronidation (MG1, MG2) in human liver microsomes; assay type: biochemical; details: liver 062101, 2ME2 50 μM
T5 construct: other: liver 062101
Description: as §1

[7] = tested on: UGT enzymes of human liver microsomes; test: Inhibition of estradiol (E2) glucuronidation in human liver microsomes; assay type: biochemical; details: E2 50 μM
Description: as §1

[8] = tested on: T6, UGT enzymes of human liver microsomes; test: as above; assay type: biochemical; details: liver 032101, E2 50 μM
T6 construct: residual metabolism (% of control), E2-3-β-D-glucuronide; other: liver 032101; residual metabolism (% of control), E2-3-β-D-glucuronide
Description: as §1

[9] = formation of glucuronide G1, % of control metabolism, raloxifene G1, UGT1A8
[10] = formation of glucuronide G2, % of control metabolism, raloxifene G2, UGT1A8
[11] = formation of glucuronide G1, % of control metabolism, raloxifene G1, UGT1A10
[12] = formation of glucuronide G2, % of control metabolism, raloxifene G2, UGT1A10

% of control metabolism, raloxifene G1 ([2]; inhibitor 50 μM) | % of control metabolism, raloxifene G2 ([2]; inhibitor 50 μM) | residual metabolism (percentage of control), zidovudine glucuronidation ([3]; inhibitor 500 μM) | residual metabolism (percentage of control), zidovudine glucuronidation ([3]; inhibitor 1000 μM) | residual metabolism (% of control), E2-17-β-D-glucuronide ([4]; inhibitor 50 μM) | residual metabolism (% of control), 2ME2 MG2 ([6]; inhibitor 100 μM) | residual metabolism (percentage of control), zidovudine glucuronidation ([3]; inhibitor 50 μM) | residual metabolism (percentage of control), zidovudine glucuronidation ([3]; inhibitor 100 μM) | residual metabolism (percentage of control), zidovudine glucuronidation ([3]; inhibitor 200 μM) | residual metabolism (% of control), E2-3-β-D-glucuronide ([8]; inhibitor 50 μM) | residual metabolism (% of control), 2ME2 MG1 ([6]; inhibitor 25 μM) | residual metabolism (% of control), 2ME2 MG2 ([6]; inhibitor 25 μM) | residual metabolism (% of control), 2ME2 MG1 ([6]; inhibitor 50 μM) | residual metabolism (% of control), 2ME2 MG2 ([6]; inhibitor 50 μM) | residual metabolism (% of control), 2ME2 MG1 ([6]; inhibitor 100 μM) | residual metabolism (% of control), E2-3-β-D-glucuronide ([8]; inhibitor 100 μM) | activity at 15 min, 50 µM [5, 11] [%] | activity at 15 min, 50 µM [5, 12] [%] | Compound | residual metabolism (% of control), E2-17-β-D-glucuronide ([4]; inhibitor 100 μM) | inhibition of raloxifene glucuronidation, in words [5] | also measured
34 (3) % | 40 (3) % | 28 (1) % | – | 83 (0) % | 58 (1) % | 80 (1) % | 67 (1) % | 60 (2) % | 27 (1) % | 47 (1) % | 79 (2) % | 33 (1) % | 69 (2) % | 17 (1) % | – | – | – | O=C(O[C@@H]1Cc2c(O)cc(O)cc2O[C@@H]1c1ccc(O)c(O)c1)c1cc(O)c(O)c(O)c1 [Epicatechin gallate] | – | – | residual metabolism (% of control), E2-3-β-D-glucuronide ([7]; liver 062101, inhibitor 50 μM): 34 (1) %; residual metabolism (% of control), E2-17-β-D-glucuronide ([7]; liver 062101, inhibitor 50 μM): 67 (1) %
69 (3) % | 93 (6) % | 74 (2) % | 43 (2) % | – | 91 (1) % | – | – | – | – | – | – | 63 (2) % | 90 (5) % | 49 (1) % | 49 (1), obs % | – | – | O=C(O)c1cc(-c2ccc(F)cc2F)ccc1O [Diflunisal, reference compound] | – | – | residual metabolism (% of control), E2-3-β-D-glucuronide ([7]; liver 062101, inhibitor 100 μM): 59 (2), obs %
– | – | – | – | – | – | 54 (2) % and 50 (4) % | 42 (2) % and 37 (4) % | 20 (2) % | – | 13 (1) % | 49 (7) % | <LOQ | 28 (1) % | – | – | 10 | 8 | O=C(OC[C@H]1O[C@@H](OC(=O)c2cc(O)c(O)c(OC(=O)c3cc(O)c(O)c(O)c3)c2)[C@H](OC(=O)c2cc(O)c(O)c(OC(=O)c3cc(O)c(O)c(O)c3)c2)[C@@H](OC(=O)c2cc(O)c(O)c(OC(=O)c3cc(O)c(O)c(O)c3)c2)[C@@H]1OC(=O)c1cc(O)c(O)c(OC(=O)c2cc(O)c(O)c(O)c2)c1)c1cc(O)c(O)c(OC(=O)c2cc(O)c(O)c(O)c2)c1 [Tannic acid] | – | – | activity at 15 min, 10 µM [1, 9]: 73%; activity at 15 min, 10 µM [1, 10]: 75%; % of control metabolism, raloxifene G1 ([2]; inhibitor 10 μM): 39 (7) %; % of control metabolism, raloxifene G2 ([2]; inhibitor 10 μM): 47 (8) %; residual metabolism (% of control), E2-3-β-D-glucuronide ([7]; liver 032101, inhibitor 10 μM): 14 (1) %; residual metabolism (% of control), E2-17-β-D-glucuronide ([7]; liver 032101, inhibitor 10 μM): 75 (3) %; residual metabolism (% of control), E2-3-β-D-glucuronide ([7]; liver 062101, inhibitor 10 μM): 26 (4) %; residual metabolism (% of control), E2-17-β-D-glucuronide ([7]; liver 062101, inhibitor 10 μM): 72 (3) %; activity at 15 min, 25 µM [5, 11]: 56%; activity at 15 min, 25 µM [5, 12]: 53%
– | – | 77 (2) % | – | – | – | – | – | – | – | – | – | – | – | – | – | – | – | CCCOC(=O)c1cc(O)c(O)c(O)c1 [Propyl gallate] | – | – | –
80 (3) % | 137 (9) % | 54 (3) % | 17 (1) % | 88 (1) % | 65 (3) % | – | – | – | 53 (1) % | – | – | 68 (3) % | 94 (4) % | 51 (0) % | 33 (2) % | 63 | 71 | CCCCCCCCOC(=O)c1cc(O)c(O)c(O)c1 [Octyl gallate] | 74 (2) % | very poor inhibitor | activity at 15 min, 50 µM [1, 9]: 116%; activity at 15 min, 50 µM [1, 10]: 95%

Compound | % of control metabolism, raloxifene G1 ([2]; inhibitor 50 μM) | % of control metabolism, raloxifene G2 ([2]; inhibitor 50 μM) | residual metabolism (percentage of control), zidovudine glucuronidation ([3]; inhibitor 500 μM) | residual metabolism (percentage of control), zidovudine glucuronidation ([3]; inhibitor 1000 μM) | residual metabolism (% of control), E2-17-β-D-glucuronide ([4]; inhibitor 50 μM) | residual metabolism (% of control), 2ME2 MG2 ([6]; inhibitor 100 μM) | residual metabolism (percentage of control), zidovudine glucuronidation ([3]; inhibitor 50 μM) | residual metabolism (percentage of control), zidovudine glucuronidation ([3]; inhibitor 100 μM) | residual metabolism (percentage of control), zidovudine glucuronidation ([3]; inhibitor 200 μM) | residual metabolism (% of control), E2-3-β-D-glucuronide ([8]; inhibitor 50 μM) | residual metabolism (% of control), 2ME2 MG1 ([6]; inhibitor 25 μM) | residual metabolism (% of control), 2ME2 MG2 ([6]; inhibitor 25 μM) | residual metabolism (% of control), 2ME2 MG1 ([6]; inhibitor 50 μM) | residual metabolism (% of control), 2ME2 MG2 ([6]; inhibitor 50 μM) | residual metabolism (% of control), 2ME2 MG1 ([6]; inhibitor 100 μM) | residual metabolism (% of control), E2-3-β-D-glucuronide ([8]; inhibitor 100 μM) | activity at 15 min, 50 µM [5, 11] [%] | activity at 15 min, 50 µM [5, 12] [%] | residual metabolism (% of control), E2-17-β-D-glucuronide ([4]; inhibitor 100 μM) | inhibition of raloxifene glucuronidation, in words [5] | also measured
C=CCc1ccc(O)c(OC)c1 [Eugenol] | 91 (1) % | 96 (5) % | 84 (2) % | 48 (4) % | obs, 94 (5) % | 72 (1) % | – | – | – | – | – | – | – | – | – | – | – | – | obs, 89 (6) % | ineffective | inhibition of raloxifene glucuronidation, in words ([1]; UGT1A8): ineffective
